Test results as given in patent US20230339891A1, “URACIL DERIVATIVES AS MER-AXL INHIBITORS” (BRISTOL-MYERS SQUIBB COMPANY, priority 2018, published 2023).

Legend:
GST-MERTK 578-872 = GST-MERTK 578-872 (Homo sapiens (Human), UniProt Q12866); experiment: MERTK kinase homogeneous time resolved fluorescence (HTRF) binding assay; details: 1 nM kinase, fluorescein-labeled kinase tracer at Kd, 60 minutes at room temperature; read-out: Mer HTRF IC50
Method: (§1) MERTK, AXL, TYRO3 Kinase Homogeneous Time Resolved Fluorescence (HTRF) Assay
(§2) Assays were performed in black, flat-bottom, 1536-well plates. The reactions were incubated at room temperature for 60 minutes, following which the HTRF signals, ratio of fluorescence intensities at emission wavelengths for fluorescein acceptor (520 nm) and terbium donor (495 nm), the 520/495 ratio, were measured on the Envision Plate reader. Inhibition data were calculated from the 520/495 ratio generated by the no protein control reactions for 100% inhibition and vehicle-only reactions for 0% inhibition, and dose response curves generated to determine the concentration required for inhibiting 50% of the HTRF signal (IC50). Compounds were dissolved at 10 mM in dimethylsulfoxide (DMSO) and evaluated at eleven concentrations.

HIS-AXL 473-End = HIS-AXL 473-End (Homo sapiens (Human), UniProt P30530); experiment: AXL kinase homogeneous time resolved fluorescence (HTRF) binding assay; details: 1 nM kinase, fluorescein-labeled kinase tracer at Kd, 60 minutes at room temperature
Method: as §1, §2

Chain of GST-MERTK 578-872 (Q12866 578-872): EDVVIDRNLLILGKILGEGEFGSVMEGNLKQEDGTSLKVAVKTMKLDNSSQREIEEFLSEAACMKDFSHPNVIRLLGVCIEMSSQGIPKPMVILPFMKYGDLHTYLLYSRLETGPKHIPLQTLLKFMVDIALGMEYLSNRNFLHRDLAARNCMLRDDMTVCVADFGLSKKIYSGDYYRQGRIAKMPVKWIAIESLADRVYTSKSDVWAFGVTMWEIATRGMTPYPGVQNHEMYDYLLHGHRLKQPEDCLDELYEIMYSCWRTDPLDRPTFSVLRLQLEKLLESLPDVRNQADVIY
Chain of HIS-AXL 473-End (P30530 473-894): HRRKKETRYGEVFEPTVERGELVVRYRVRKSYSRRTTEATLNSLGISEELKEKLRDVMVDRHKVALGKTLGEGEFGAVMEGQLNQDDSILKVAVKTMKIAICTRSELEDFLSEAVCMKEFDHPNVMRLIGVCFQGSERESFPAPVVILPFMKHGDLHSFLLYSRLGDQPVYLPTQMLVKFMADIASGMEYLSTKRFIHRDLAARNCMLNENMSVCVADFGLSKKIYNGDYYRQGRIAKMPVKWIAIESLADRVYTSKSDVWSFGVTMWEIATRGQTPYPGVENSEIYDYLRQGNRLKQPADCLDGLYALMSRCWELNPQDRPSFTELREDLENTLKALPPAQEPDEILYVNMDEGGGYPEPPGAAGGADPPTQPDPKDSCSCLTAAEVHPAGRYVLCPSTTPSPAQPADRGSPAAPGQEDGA

Compound	IC50 (GST-MERTK 578-872) [nM]	IC50 (HIS-AXL 473-End) [nM]
CC(C)n1cc(C(=O)Nc2ccc(Oc3ccnc(Nc4ccc(S(=O)(=O)N5CC(O)C5)cn4)c3)c(F)c2)c(=O)n(-c2ccc(F)cc2)c1=O [Example 82]	8.8	256
CCOc1cnc(Nc2cc(Oc3ccc(NC(=O)c4cn(C(C)C)c(=O)n(-c5ccc(F)cc5)c4=O)cc3F)ccn2)cn1 [Example 29]	182	7.2
CN(C)S(=O)(=O)c1ccc(Nc2cc(Oc3ccc(NC(=O)c4cn([C@@H]5CCOC5)c(=O)n(-c5ccc(F)cc5)c4=O)cc3F)ccn2)nc1 [Example 46]	12	5.4
CC(C)n1cc(C(=O)Nc2ccc(Oc3ccnc(Nc4cccc(C(F)(F)F)n4)c3)c(F)c2)c(=O)n(-c2ccc(F)cc2)c1=O [Example 9]	16	29
COC(=O)c1ccc(Nc2cc(Oc3ccc(NC(=O)c4cn(C(C)C)c(=O)n(-c5ccc(F)cc5)c4=O)cc3F)ccn2)nc1 [Example 14, Methyl 6-((4-(2-fluoro-4-(3-(4-fluorophenyl)-1-isopropyl-2,4-dioxo-1,2,3,4-tetrahydropyrimidine-5-carboxamido)phenoxy)pyridin-2-yl)amino)nicotinate]	11	3.6
CC(C)n1cc(C(=O)Nc2ccc(Oc3ccnc(Nc4ccc(S(=O)(=O)N5CCOCC5)cn4)c3)c(F)c2)c(=O)n(-c2ccc(F)cc2)c1=O [Example 84]	31	2330
CC(C)n1cc(C(=O)Nc2ccc(Oc3ccnc(Nc4ccc(S(=O)(=O)N(C)C)cn4)c3)c(F)c2)c(=O)n(-c2ccc(F)cc2)c1=O [Example 20]	12	4.7
CC(C)n1cc(C(=O)Nc2ccc(Oc3ccnc(Nc4ccc(S(=O)(=O)NC(C)(C)C)cn4)c3)c(F)c2)c(=O)n(-c2ccc(F)cc2)c1=O [Example 80]	19	12
CC(C)n1cc(C(=O)Nc2ccc(Oc3ccnc(Nc4ccnc(N5CCC(S(C)(=O)=O)CC5)n4)c3)c(F)c2)c(=O)n(-c2ccc(F)cc2)c1=O [Example 114]	1.4	0.6
CC(C)n1cc(C(=O)Nc2ccc(Oc3ccnc(Nc4ccc(C(N)=O)cn4)c3)c(F)c2)c(=O)n(-c2ccc(F)cc2)c1=O [Example 16]	5.8	1.1
Cc1ccc(Nc2cc(Oc3ccc(NC(=O)c4cn(C(C)C)c(=O)n(-c5ccc(F)cc5)c4=O)cc3F)ccn2)nc1 [Example 4]	32	4.4
CN(C)S(=O)(=O)c1ccc(Nc2cc(Oc3ccc(NC(=O)c4cn([C@H]5CCOC5)c(=O)n(-c5ccc(F)cc5)c4=O)cc3F)ccn2)nc1 [Example 47]	7.9	6
COC(=O)Cc1csc(Nc2cc(Oc3ccc(NC(=O)c4cn(C(C)C)c(=O)n(-c5ccc(F)cc5)c4=O)cc3F)ccn2)n1 [Example 33]	67	19
Cc1ccc(-n2c(=O)c(C(=O)Nc3ccc(Oc4ccnc(Nc5ccc(S(=O)(=O)N(C)C)cn5)c4)c(F)c3)cn(C(C)C)c2=O)cc1 [Example 62, N-{4-[(2-{[5-(Dimethylsulfamoyl)pyridin-2-yl]amino}pyridin-4-yl)oxy]-3-fluorophenyl}-3-(4-methylphenyl)-2,4-dioxo-1-(propan-2-yl)-1,2,3,4-tetrahydropyrimidine-5-carboxamide]	23	4.6
CC(C)Cn1c(=O)c(C(=O)Nc2ccc(Oc3ccnc(Nc4ccnc(N5CCCC5)n4)c3)c(F)c2)cn(C(C)C)c1=O [Example 107]	5.4	11
CC(C)n1cc(C(=O)Nc2ccc(Oc3ccnc(Nc4ccc(C(C)(C)O)cn4)c3)c(F)c2)c(=O)n(-c2ccc(F)cc2)c1=O [Example 15]	8	1.7
CCc1cnc(Nc2cc(Oc3ccc(NC(=O)c4cn(C(C)C)c(=O)n(-c5ccc(F)cc5)c4=O)cc3F)ccn2)nc1 [Example 32]	342	0.9
CC(C)n1cc(C(=O)Nc2ccc(Oc3ccnc(Nc4ccc(OC(F)(F)F)cn4)c3)c(F)c2)c(=O)n(-c2ccc(F)cc2)c1=O [Example 11]	128	53
CC(C)n1cc(C(=O)Nc2ccc(Oc3ccnc(Nc4ccc(S(=O)(=O)N(C)C)cn4)c3)c(F)c2)c(=O)n(Cc2ccncc2)c1=O [Example 58]	201	287
CC(C)n1cc(C(=O)Nc2ccc(Oc3ccnc(Nc4ccc(C(=O)N(C)C)cn4)c3)c(F)c2)c(=O)n(-c2ccc(F)cc2)c1=O [Example 17]	1.9	2.7
Cc1cnc(Nc2cc(Oc3ccc(NC(=O)c4cn(C(C)C)c(=O)n(-c5ccc(F)cc5)c4=O)cc3F)ccn2)nc1 [Example 31]	158	7.5
CCc1ccc(Nc2cc(Oc3ccc(NC(=O)c4cn(C(C)C)c(=O)n(-c5ccc(F)cc5)c4=O)cc3F)ccn2)nc1 [Example 5]	56	24
COc1cccc(-n2c(=O)c(C(=O)Nc3ccc(Oc4ccnc(Nc5ccc(S(=O)(=O)N(C)C)cn5)c4)c(F)c3)cn(C(C)C)c2=O)c1 [Example 71]	40	12

Now from value to compound:

IC50 (GST-MERTK 578-872) [nM]	IC50 (HIS-AXL 473-End) [nM]	Compound
1	1.5	CC(C)n1cc(C(=O)Nc2ccc(Oc3ccnc(Nc4ccc(C#N)c(N5CCN(S(C)(=O)=O)CC5)n4)c3)c(F)c2)c(=O)n(-c2ccc(F)cc2)c1=O [Example 116, N-{4-[(2-{[5-cyano-6-(4-methanesulfonylpiperazin-1-yl)pyridin-2-yl]amino}pyridin-4-yl)oxy]-3-fluorophenyl}-3-(4-fluorophenyl)-2,4-dioxo-1-(propan-2-yl)-1,2,3,4-tetrahydropyrimidine-5-carboxamide]
3.9	1040	Cc1cc(Nc2cc(Oc3ccc(NC(=O)c4cn(C(C)C)c(=O)n(-c5ccc(F)cc5)c4=O)cc3F)ccn2)nc(N2CCN(S(C)(=O)=O)CC2)c1 [Example 136, N-{3-fluoro-4-[(2-{[6-(4-methanesulfonylpiperazin-1-yl)-4-methylpyridin-2-yl]amino}pyridin-4-yl)oxy]phenyl}-3-(4-fluorophenyl)-2,4-dioxo-1-(propan-2-yl)-1,2,3,4-tetrahydropyrimidine-5-carboxamide]
6.7	16	CC(C)n1cc(C(=O)Nc2ccc(Oc3ccnc(Nc4ccc(NS(C)(=O)=O)cn4)c3)c(F)c2)c(=O)n(-c2ccc(F)cc2)c1=O [Example 87, N-[3-fluoro-4-({2-[(5-methanesulfonamidopyridin-2-yl)amino]pyridin-4-yl}oxy)phenyl]-3-(4-fluorophenyl)-2,4-dioxo-1-(propan-2-yl)-1,2,3,4-tetrahydropyrimidine-5-carboxamide]
1.4	2.3	O=C(Nc1ccc(Oc2ccnc(Nc3ccnc(N4CCCC4)n3)c2)c(F)c1)c1cn(C2CC2)c(=O)n(-c2ccc(F)cc2)c1=O [Example 105]
17	14700	CC(C)n1cc(C(=O)Nc2ccc(Oc3ccnc(Nc4ccc(C(F)(F)F)c(N5CCN(S(=O)(=O)N(C)C)CC5)n4)c3)c(F)c2)c(=O)n(-c2ccc(F)cc2)c1=O [Example 141]
0.5	0.9	CC(C)n1cc(C(=O)Nc2ccc(Oc3ccnc(Nc4ccnc(N5CCN(S(C)(=O)=O)CC5)n4)c3)c(F)c2)c(=O)n(-c2ccc(F)cc2)c1=O [Example 102, N-{3-fluoro-4-[(2-{[2-(4-methanesulfonylpiperazin-1-yl)pyrimidin-4-yl]amino}pyridin-4-yl)oxy]phenyl}-3-(4-fluorophenyl)-2,4-dioxo-1-(propan-2-yl)-1,2,3,4-tetrahydropyrimidine-5-carboxamide]
2.1	3.1	COC(=O)N1CCN(c2nc(Nc3cc(Oc4ccc(NC(=O)c5cn(C(C)C)c(=O)n(-c6ccc(F)cc6)c5=O)cc4F)ccn3)ccc2S(=O)(=O)N(C)C)CC1 [Example 100]
2.2	1.3	CC(C)n1cc(C(=O)Nc2ccc(Oc3ccnc(Nc4ccc(C#N)c(N5CCN(S(C)(=O)=O)[C@H](C)C5)n4)c3)c(F)c2)c(=O)n(-c2ccc(F)cc2)c1=O [Example 125]
1.6	0.4	CC(C)n1cc(C(=O)Nc2ccc(Oc3ccnc(Nc4ccc(C(=O)NCCN5CCOCC5)cn4)c3)c(F)c2)c(=O)n(-c2ccc(F)cc2)c1=O [Example 93]
2.9	2	CC(C)n1cc(C(=O)Nc2ccc(Oc3ccnc(Nc4ccc(C#N)c(N5CCC(S(C)(=O)=O)C5)n4)c3)c(F)c2)c(=O)n(-c2ccc(F)cc2)c1=O (stereo not shown) [Example 124]
31	10	Cc1cc(Nc2cc(Oc3ccc(NC(=O)c4cn(C(C)C)c(=O)n(-c5ccc(F)cc5)c4=O)cc3F)ccn2)ncc1S(=O)(=O)N(C)C [Example 86, N-{4-[(2-{[5-(dimethylsulfamoyl)-4-methylpyridin-2-yl]amino}pyridin-4-yl)oxy]-3-fluorophenyl}-3-(4-fluorophenyl)-2,4-dioxo-1-(propan-2-yl)-1,2,3,4-tetrahydropyrimidine-5-carboxamide]
6.4	7.4	CC(C)n1cc(C(=O)Nc2ccc(Oc3ccnc(Nc4ccc(S(=O)(=O)N(C)C)c(N5CCN(S(C)(=O)=O)CC5)n4)c3)c(F)c2)c(=O)n(-c2ccc(F)cc2)c1=O [Example 99, N-{4-[(2-{[5-(dimethylsulfamoyl)-6-(4-methanesulfonylpiperazin-1-yl)pyridin-2-yl]amino}pyridin-4-yl)oxy]-3-fluorophenyl}-3-(4-fluorophenyl)-2,4-dioxo-1-(propan-2-yl)-1,2,3,4-tetrahydropyrimidine-5-carboxamide]
